We go through one molecule from article PMC4830539, “Chemical Inhibition of Histone Deacetylases 1 and 2 Induces Fetal Hemoglobin through Activation of GATA2” (PLoS ONE, 2016).

This experiment concerns HBG mRNA. Description: HBG mRNA in burst forming unit erythroid (BFU-E) colonies. The experiment is classed as cell-based, human. Particulars: 14 days. Here is the method: Burst forming unit erythroid (BFU-E) assays were performed by ReachBio Research Labs (Seattle, WA). On the day of the experiment, normal human bone marrow mononuclear cells (Lonza) were thawed rapidly, diluted in 10 mL of IMDM containing 10% fetal bovine serum and washed by centrifugation. The supernatant was discarded and the cell pellet resuspended in a known volume of IMDM + 10% FBS. ACY-957 or vehicle was added to a semi-solid methylcellulose-based media formulation containing IL3 (10 ng/mL), CSF2 (10 ng/mL), KITLG (50 ng/mL), and EPO (3 U/mL) and plated in triplicate. BFU-E assays were initiated at 2.5 x 10^4 cells per culture. Following 14–16 days in culture, BFU-E colonies were isolated and RNA purified using the RNeasy Micro Kit (Qiagen).
Globin mRNA was detected using quantitative real time PCR (QPCR). Total RNA was isolated using RNeasy Micro Kit (Qiagen) with on-column DNase digestion, converted into cDNA using the High Capacity RNA-to-cDNA Kit (Life Technologies), diluted 5-fold with water, and 1 μL used as a template for QPCR. The percent of each β-like globin transcript was determined using the absolute standard curve method. Briefly, DNA corresponding to the full length transcript for each globin isoform was cloned into […] plasmid (GenScript, Piscataway NJ). Each plasmid was validated against each QPCR probe to ensure specificity. Plasmids were pooled at equal molar concentration and a dilution series spanning 8-logs was utilized as the standard curve. Throughout this work, ‘HBG mRNA (%)’ and ‘percent HBG mRNA’ refers to the abundance of HBG mRNA expressed relative to the sum of the abundances of all β-like globin transcripts, i.e. [HBG/(HBB+HBD+HBG+HBE)]*100. In cases where the transcript of interest was compared against the housekeeping gene ACTB, the comparative Ct ([…]) method was utilized. […]

Each structure is given as a SMILES string.

On to `Nc1ccc(-c2cccs2)cc1NC(=O)c1ccc2nc(N3CCNCC3)ccc2c1` [ACY-957], for which the “each β-like globin transcript relative to ACTB” value is “increased HBE and HBG mRNA and decreased HBD and HBB mRNA”. Moreover, the “percent HBG” value (1 μM) came to 48%. Moreover, the “percent HBG” value (2 μM) turned out to be 82%.
